# Legend:
# [1] = system: human lymph node CD4+ CD45RO+ T cells; experiment: In vitro treatment of human lymph node cells with 4EGI-1; assay type: cell-based; details: 4EGI-1 overnight, three patients
# Procedure: Discarded, deidentified, reactive, but non-malignant human lymph node single cell suspensions were obtained. Presence of TFH cells was confirmed by identification of CD4^+ CD45RO^+ T cells that are PD1^+ CXCR5^+ BCL6^+ and ICOS^+. Lymph node suspensions were incubated overnight at 37° C. in X-VIVO media (Lonza) containing 5% human AB serum (Sigma) and Glutamax with 0-25 μM 4EGI-1. Cells were then stained with a live/dead viability marker and then for extracellular expression of human CD4, CD45RO, CXCR5, PD-1, or ICOS or intranuclear expression of BCL6. Expression of markers was normalized to % of control (0 μM 4EGI-1) to allow for combined statistical analysis of all 3 patients. Antibody clones and dilutions used to identify these populations are detailed in Table 2.
# TFH cells = experiment: OVA/Alum immunization with 4EGI-1 throughout the response; assay type: in vivo, mouse
# Procedure: Single cell suspensions were stained with a viability marker diluted 1:1000 in PBS for 10 minutes, washed in PBS, and stained with antibodies to specific cell surface markers. Viability dye, antibody clones, and dilutions used to identify these populations are detailed in Table 2. Identification of cellular subsets in mice is detailed in FIGS. 1A-1N, 3A-3C, and 6A-6C). In brief, the following gating strategy was used to identify mouse TFH cells (CD4^+ PD1^+ CXCR5^+), TFR cells (CD4^+ PD1^+ CXCR5^+ Foxp3^+), IL-21^+ CD4^+ T cells (CD4^+ VFP^3+), IL-4^+ CD4^+ T cells (CD4^+ GFP^+) OT2 T cells (CD4^+ CD45.2^+ Vβ5^+), OT2 TFH cells (CD4^+ CD45.2^+ Vβ5^+ PD1^+ CXCR5^+), 2D2 T cells (CD4^+ CD45.2^+ Vα3.2^+), TFH-like 2D2 T cells (CD4^+ CD45.2^+ […]), plasma cells (B220^− CD138^+), plasmablasts (B220^mid CD138^+), GC B cells (B220^+ GL7^+ Fas^+), Light zone GC B cells (B220^+ GL7^+ Fas^+ CD86^+), dark zone GC B cells (B220^+ GL7^+ Fas^+ CXCR4^+), IgG1 switched GC B cells (B220^+ GL7^+ Fas^+ IgG1^+), OVA-specific GC B cells (B220^+ GL7^+ Fas^+ OVA-647^+), skin neutrophils (Ly6G^+ CD11b^+), lung eosinophils (SiglecF^+CD11c^−), brain and SC CD4^+ T cells (CD45^+ CD4^+). CD4^+ T cell expression of surface ICOS, PD-1, CXCR5, CD28, SLAM, OX-40 and intranuclear BCL6 was also determined. All flow cytometry procedures were performed on a ZE5 Cell Analyzed (Bio-Rad) and analyzed using FlowJo software (TreeStar).
# OVA protein (Sigma A5503) was diluted in PBS and then in 20 mg/mL Imject Alum (ThermoFisher 77161) and mixed at room temperature for 30 minutes prior to i.p. injection of 100 μg OVA in 200 μL. When stated, mice were treated i.p. daily from day 0 to 6 or day 0 to 13 (just for TFR analysis) following OVA/Alum immunization with 25 mg/kg 4EGI-1 (MedChemExpress) or from day 7 to 13 following OVA/Alum immunization with 50 mg/kg or 75 mg/kg 4EGI-1. Vehicle control mice were administered 6 μL DMSO in 194 μL PBS i.p.
# Spleens from OVA/Alum immunized mice treated with vehicle or 4EGI-1 were harvested, embedded in OCT, and frozen immediately on dry ice. Five-micron thick cryosections were cut and fixed in acetone for 10 min. Slides were blocked with 1% BSA and stained with anti-CD4 conjugated to Alexa Fluor 647 and anti-B220 Alexa Fluor 555. Antibody clones are detailed in Table 2. Following 3 washes with PBS, slides were mounted with DAPI fluoromount (VECTASHIELD) and sealed with clear nail polish. Staining was visualized and tiled using a Zeiss 700 laser scanning inverted confocal microscope.
# B cell (Alexa fluor 555) and CD4^+ T cell (Alexa fluor 647) channels were split using FIJI, and B cell zones were manually outlined. This outline was overlaid upon the CD4^+ T cell stain and intensity of CD4^+ T cell staining within these zones was measured using FIJI and normalized to a fixed area of 500 microns
# PVDF-coated 96-well plates (Millipore) were activated with methanol for 2 minutes, washed with PBS, and coated with 4 μg/mL OVA overnight at 4° C. Plates were blocked with 1% BSA for 2 hours at 37° C. prior to incubation with 1×10^7 splenocytes in RPMI containing 2% Ultra-low IgG FCS, 55 μM 2ME, and 100 U/mL penicillin and 100 μg/mL streptomycin in the top well. Cells were diluted by 1/2 each row going down the plate and incubated immobile overnight at 37° C. Plates were washed with water+0.05% Tween 20 for 5 min prior to 3 washes in PBS+0.05% Tween-20 for 10 minutes. Plates were incubated with 1:1000 HRP-coupled goat anti-mouse IgG1 antibody (Southern Biotech) in PBS+0.05% Tween 20 for 2 h prior to 3 washes in PBS+0.05% Tween 20 and incubation in tetramethylbenzidine (TMB) ELISA substrate buffer (ThermoFisher). Plates were washed once in distilled deionized water and spots were manually enumerated and antibody-secreting cells (ASC) per million splenocytes was determined.
# For quantification of OVA-specific IgG1, high-binding 96-well plates (Costar) were coated with 10 μg/mL OVA protein. […]
# [2] = system: TH17-differentiated 2D2 T cells; experiment: Passive EAE with TH17-differentiated 2D2 T cells pre-treated with 4EGI-1; assay type: in vivo, mouse; details: 2D2 T cells pre-treated with 20 μM 4EGI-1 for 1 h in vitro
# Procedure: TH17 2D2 T cells were removed from activation and treated with vehicle or 20 μM 4EGI-1 for 1 h at 37° C. in vitro prior to transfer of 9.3×10^6 2 D2 T cells i.p. per recipient. Mice were given 200 ng pertussis toxin i.p. […] following T cell injection. Animals were monitored daily for 35 days and scored on a scale of 0-5 as described above. At day 35, TFH-like (ICOS^high) Vα3.2 cells were identified from the spinal cord.
# [3] = cytokine reporter mice, OVA-Alum immunization
smiles,measurement,setting,value
O=C(O)C(Cc1ccccc1[N+](=O)[O-])=NNc1nc(-c2ccc(Cl)c(Cl)c2)cs1 (mixture of isomers) [4EGI-1],levels of BCL6 protein,[1]; 0-30 μM / 0-25 μM,rapidly reduced
same,cell viability,[1],no effect
same,reduction of TFH cells in spleen,"TFH cells; 25 mg/kg daily, OVA/Alum, day 7",3.5 fold
same,overall CD4+ T cell numbers,"TFH cells; 25 mg/kg daily, OVA/Alum, spleen, day 7",did not alter
same,CD4+ T cell activation (CD44high),"TFH cells; 25 mg/kg daily, OVA/alum",did not affect
same,CD4+ T cell division,"TFH cells; 25 mg/kg daily, OVA/alum",did not affect
same,CD4+ T cell expression of CD28,"TFH cells; 25 mg/kg daily, OVA/alum",decreased by half
same,CD4+ T cell expression of OX40,"TFH cells; 25 mg/kg daily, OVA/alum",not affected
same,CD4+ T cell expression of SLAM,"TFH cells; 25 mg/kg daily, OVA/alum",decreased by half
same,levels of expression of ICOS on CD4+ T cells,"TFH cells; 25 mg/kg daily, OVA/alum",did not affect
same,reduction of expression of PD-1 on splenic CD4+ T cells,"TFH cells; 25 mg/kg daily, OVA/alum",more than half
same,reduction of expression of intranuclear BCL6 in splenic CD4+ T cells,"TFH cells; 25 mg/kg daily, OVA/alum",more than half
same,reduction of expression of surface CXCR5 on splenic CD4+ T cells,"TFH cells; 25 mg/kg daily, OVA/alum",more than half
same,infiltration of CD4+ T cells in B cell zones,"TFH cells; 25 mg/kg daily, OVA/alum, splenic sections",almost abolished
same,reduction of TFR cells,"TFH cells; 4EGI-1 for 14 days, measured at day 14, OVA/Alum",3 fold
same,serum OVA-specific IgG1 antibody,"TFH cells; OVA/Alum, ELISA",reduced by half
same,OVA-specific IgG1 antibody secreting cells (ASCs),"TFH cells; OVA/Alum, ELISPOT, splenocytes",almost abolished
same,decrease of GC B cells in the CD86+ light zone (LZ),"TFH cells; OVA/Alum, spleen, day 7",3 fold
same,decrease of GC B cells in the CXCR4+ dark zone (DZ),"TFH cells; OVA/Alum, spleen, day 7",3 fold
same,decrease of GC B cells that are class switched IgG1+,"TFH cells; OVA/Alum, spleen, day 7",3 fold
same,decrease of OVA-specific GC B cells,"TFH cells; OVA/Alum, spleen, day 7",3 fold
same,decrease of number of total GC B cells,"TFH cells; OVA/Alum, spleen, day 7",3 fold
same,reduction of number of total plasma cells,"TFH cells; OVA/Alum, spleen, day 7",2 fold
same,reduction of number of total plasmablasts,"TFH cells; OVA/Alum, spleen, day 7",2 fold
same,decrease of total number of CD4+ T cells producing IL-4 (GFP+) in the spleen,TFH cells; [3],2.5 fold
same,decrease of total number of CD4+ T cells producing IL-21 (VFP+) in the spleen,TFH cells; [3],2.5 fold
same,TFH-like 2D2 T cells (ICOShigh) in the spinal cord,[2],reduced by half
same,development of passive EAE disease in recipient mice,[2],did not develop disease
